The results in this text go back to patent US10253069B2, “Compositions and methods for regulating arterial tone” (University of Virginia Patent Foundation, priority 2012, dated 2019).

The target of one experiment is T1, eNOS/Hb α interaction (Homo sapiens, UniProt P29474).
T1 construct: purchased Origene
T1 sequence (P29474 2-1203 limits assumed): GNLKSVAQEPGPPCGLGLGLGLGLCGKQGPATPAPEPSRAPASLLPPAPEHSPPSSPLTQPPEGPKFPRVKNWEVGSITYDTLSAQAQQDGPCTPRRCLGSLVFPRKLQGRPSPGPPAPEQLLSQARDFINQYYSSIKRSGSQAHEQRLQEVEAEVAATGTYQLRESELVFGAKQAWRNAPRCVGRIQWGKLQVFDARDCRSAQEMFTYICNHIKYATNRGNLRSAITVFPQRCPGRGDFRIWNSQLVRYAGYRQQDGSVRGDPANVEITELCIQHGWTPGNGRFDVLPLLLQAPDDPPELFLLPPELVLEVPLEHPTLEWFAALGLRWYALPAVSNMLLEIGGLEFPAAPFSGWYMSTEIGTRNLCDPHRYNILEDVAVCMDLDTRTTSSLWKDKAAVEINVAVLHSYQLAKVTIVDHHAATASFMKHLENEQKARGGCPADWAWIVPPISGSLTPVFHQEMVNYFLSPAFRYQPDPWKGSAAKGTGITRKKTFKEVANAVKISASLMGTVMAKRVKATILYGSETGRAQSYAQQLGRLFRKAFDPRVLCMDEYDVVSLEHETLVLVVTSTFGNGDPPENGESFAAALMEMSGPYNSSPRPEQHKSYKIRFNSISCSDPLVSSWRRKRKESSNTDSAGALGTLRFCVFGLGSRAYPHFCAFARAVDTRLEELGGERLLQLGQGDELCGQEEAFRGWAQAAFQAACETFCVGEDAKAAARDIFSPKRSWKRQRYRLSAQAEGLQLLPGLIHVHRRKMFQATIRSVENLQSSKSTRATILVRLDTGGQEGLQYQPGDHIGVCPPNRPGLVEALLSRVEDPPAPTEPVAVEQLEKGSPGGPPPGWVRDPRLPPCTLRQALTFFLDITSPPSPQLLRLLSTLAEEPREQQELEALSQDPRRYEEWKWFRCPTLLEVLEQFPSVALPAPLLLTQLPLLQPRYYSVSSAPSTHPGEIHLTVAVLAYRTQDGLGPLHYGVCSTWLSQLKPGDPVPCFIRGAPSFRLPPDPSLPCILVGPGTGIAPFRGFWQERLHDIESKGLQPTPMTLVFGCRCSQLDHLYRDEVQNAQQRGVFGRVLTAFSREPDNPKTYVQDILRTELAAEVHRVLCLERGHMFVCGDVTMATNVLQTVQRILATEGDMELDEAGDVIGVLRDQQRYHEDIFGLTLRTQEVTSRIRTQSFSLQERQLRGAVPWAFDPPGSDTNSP
Briefly: Purified eNOS and Hb α protein interaction (co-immunoprecipitation, Western blot). The class given is binding. The procedure: Purified Flag-eNOS was purchased from Origene and isolated Hb α chains were generated as previously described^9. Co-immunoprecipitation studies were performed by incubating 1 μg of Flag-eNOS with 5 μmol/L of each peptide (tat-only, Scr X or Hb α X) for 30 minutes at 37° C. while shaking. Then, 1 μg of isolated Hb α chains were added to the Flag-eNOS/peptide complex for an additional 30 minutes at 37° C. shaking. Anti-Flag nickel beads, blocked with 1% bovine albumin serum for 1 hour, were added to each condition for an additional hour with agitation. Proteins were washed 3× with PBS for 15 minutes and purified protein-protein complexes were precipitated using a strong magnet. The nickel beads were incubated with 5×SDS PAGE buffer to elute proteins off the beads. Samples were subjected to Western blot analysis to determine peptide-induced disruption of Hb α and eNOS binding.
(Immunoblotting shows a protein as a band on a membrane.)

Experiment [1] has as its system thoracodorsal arteries. Briefly: cGMP assay on thoracodorsal arteries. More on the design: species or system mouse. The protocol:
Isolated thoracodorsal arteries were cannulated and pressurized to 80 mmHg as previously described^13. Arteries were perfused with 5 μM Scr X or Hb α X with addition of 0.5 mmol/L of the phosphodiesterase inhibitor 3-isobutyl-1-methylxanthine (IBMX) (all conditions) or 100 μmol/L the nitric oxide synthase inhibitor L-NG-Nitroarginine Methyl Ester (L-NAME) for 20 minutes. Arteries were then stimulated with 50 μM phenylephrine for 10 minutes and immediately immersed in lysis buffer provided in the cGMP XP assay Kit (Cell Signaling) according to manufactures instructions. Briefly, a competition enzyme-linked immunoassay was used to generate a standard curve of known cGMP concentrations followed by calculating cGMP concentrations of experimental samples. The cGMP concentration in experimental samples was normalized to total protein concentration.

Experiment [2] has as its system human coronary endothelial cells. Put plainly: Nitrite measurements from media of coronary endothelial cells. The experiment is classed as cell-based. The protocol: Primary coronary endothelial cells (Lonza) were cultured on plastic 6-well dishes as previously described^9. For studies involving basal NO release, endothelial cells were incubated with 5 μmol/L of Scr X or Hb α X for 20 minutes followed by medium collection and nitrite measurements as described below. For bradykinin studies, coronary endothelial cells were grown to confluence followed by serum starvation overnight in a cocktail of Lonza EGM-2 medium supplemented with EGM-2 bullet kit and Opti MEM reduced growth medium using a ratio of 1:9 respectively. The next day, endothelial cells were incubated with Scr X or Hb α X peptide for 20 minutes followed by the addition of 10 μM bradykinin (Sigma) for 5 minutes followed by medium collection for nitrite measurements as described below.
Quantitation of nitrite in culture medium was measured by chemiluminescence using a Sievers nitric oxide analyzer according to manufacturer's instructions. Quantitation of peaks was analyzed using Origin Pro 6.0 as previously described^9.

For experiment [3], the system named is thoracodorsal arteries. Briefly: Pressure myography on thoracodorsal arteries, phenylephrine dose response with peptides. Further details: species or system mouse.
The subject of experiment [4] is thoracodorsal arteries from eNOS−/− animals. Briefly: Pressure myography on thoracodorsal arteries from eNOS−/− mice. More on the design: species or system mouse.
The next experiment deals with abdominal aortic rings. Put plainly: Abdominal aorta ring assay. Further details: species or system mouse. Particulars: compared to untreated aortas or aortas treated with Scr X. The procedure:
Abdominal aortas were isolated, cut into 2 mm wide rings and mounted on a DMT myograph system with low bath volumes as previously described^16. Briefly, rings were stretched at 1.2× resting length in Krebs solution and allowed to equilibrate for 30 min at 37° C. prior to depolarization with […] K^+ [i]. Following the high K^+ contraction, rings were returned to Krebs solution and incubated with 5 μmol/L Scr X or Hb α X peptide for 20 minutes. Cumulative concentrations of phenylephrine (PE) (10^−10-10^−4 mol/L) were added to the rings and the magnitude of the tension response measured in milli-newtons.

Consider “Peptide LSFPTTKTYF (SEQ ID NO:2), first ten amino acids of the Hb α sequence, with HIV-tat tag YGRKKRRQRRR at the N-terminus [Hb α X]”, for which the “eNOS/Hb α interaction” value at eNOS/Hb α interaction (5 μmol/L peptide, Flag-eNOS and purified Hb α chains) is reported as “significantly disrupted”. The Inhibition of binding at eNOS/Hb α interaction (purified Hb α and eNOS protein) is more than 90%. The “cGMP accumulation with L-NAME” value in the experiment on thoracodorsal arteries [1] (phenylephrine stimulation plus L-NAME) was “reversed”. In addition, the cGMP accumulation entry with thoracodorsal arteries [1] (phenylephrine stimulation, compared to Scr X peptide) is “significant increase”. The “Nitrite accumulation following stimulation with bradykinin” value in experiment [2] (10 μM bradykinin, 5 minutes, Scr X vs Hb α X) is given as “no change”. The “Accumulation of nitrite in the culture medium, basal” value in experiment [2] (unstimulated cells) is recorded as “no differences”. Further, the “Constriction in phenylephrine dose response curves” value in the experiment on thoracodorsal arteries [3] (compared to untreated arteries) is on record as “significant decrease in constriction”. In addition, the “Emax, vascular reactivity dose response curves” value in the experiment with thoracodorsal arteries [3] (phenylephrine dose response, thoracodorsal arteries perfused with peptide) is recorded as 68.0 ± 5.3 % initial diameter. The “Constriction in phenylephrine dose response curves with L-NAME” value in the experiment with thoracodorsal arteries [3] (plus L-NAME 100 μmol/L) is “reversed”. For the same substance, the “Magnitude of phenylephrine induced constriction” value in experiment [4] is recorded as “no alteration”. Besides, in the experiment on abdominal aortic rings, the “Phenylephrine dose response curves” value was “no significant change”.
